In ChEMBL document CHEMBL1201862, “PubChem BioAssay data set” (2004):
Activity calls are given as the source filed them.

How the values were obtained:
[1] = Trypanosoma cruzi growth suppression in host cells – NIH3T3 host cells, beta-gal luminescence, confirmation (AID 2044); assay type: functional, cell-based;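 note: intracellular parasites grown in NIH/3T3 mouse fibroblasts as host cells; luminescent beta-galactosidase reporter signal from transgenic T. cruzi replicating inside host cells; inhibitors lower the luminescence signal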
Protein Wnt-3a = Protein Wnt-3a (Mus musculus, UniProt P27467); test: antagonism of Wnt3a pathway luciferase reporter – Wnt-LIGHT cells, luminescence, selectivity assay for Gli-SUFU antagonist project, dose response (AID 651570); assay type: functional; settings: read-out: IC50_Mean;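 note: Wnt-LIGHT reporter cells stimulated with conditioned medium from Wnt3a-producing cells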
[2] = NIH3T3 cell viability loss – ATP luminescence, mouse fibroblasts, counter-screen, dose response (AID 2010); assay type: functional, cell-based;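 note: cells exposed to compound for about 90 hours before reading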
Aminopeptidase N = biological target: T1, Aminopeptidase N (Plasmodium falciparum FcB1/Columbia, UniProt O96935); test: malaria alanyl aminopeptidase activity blockers – biochemical, fluorogenic H-Leu-NHMec substrate, 1536-well (AID 1445); set-up: species or system Plasmodium falciparum 3D7, 3D7
T1 sequence (O96935 whole entry): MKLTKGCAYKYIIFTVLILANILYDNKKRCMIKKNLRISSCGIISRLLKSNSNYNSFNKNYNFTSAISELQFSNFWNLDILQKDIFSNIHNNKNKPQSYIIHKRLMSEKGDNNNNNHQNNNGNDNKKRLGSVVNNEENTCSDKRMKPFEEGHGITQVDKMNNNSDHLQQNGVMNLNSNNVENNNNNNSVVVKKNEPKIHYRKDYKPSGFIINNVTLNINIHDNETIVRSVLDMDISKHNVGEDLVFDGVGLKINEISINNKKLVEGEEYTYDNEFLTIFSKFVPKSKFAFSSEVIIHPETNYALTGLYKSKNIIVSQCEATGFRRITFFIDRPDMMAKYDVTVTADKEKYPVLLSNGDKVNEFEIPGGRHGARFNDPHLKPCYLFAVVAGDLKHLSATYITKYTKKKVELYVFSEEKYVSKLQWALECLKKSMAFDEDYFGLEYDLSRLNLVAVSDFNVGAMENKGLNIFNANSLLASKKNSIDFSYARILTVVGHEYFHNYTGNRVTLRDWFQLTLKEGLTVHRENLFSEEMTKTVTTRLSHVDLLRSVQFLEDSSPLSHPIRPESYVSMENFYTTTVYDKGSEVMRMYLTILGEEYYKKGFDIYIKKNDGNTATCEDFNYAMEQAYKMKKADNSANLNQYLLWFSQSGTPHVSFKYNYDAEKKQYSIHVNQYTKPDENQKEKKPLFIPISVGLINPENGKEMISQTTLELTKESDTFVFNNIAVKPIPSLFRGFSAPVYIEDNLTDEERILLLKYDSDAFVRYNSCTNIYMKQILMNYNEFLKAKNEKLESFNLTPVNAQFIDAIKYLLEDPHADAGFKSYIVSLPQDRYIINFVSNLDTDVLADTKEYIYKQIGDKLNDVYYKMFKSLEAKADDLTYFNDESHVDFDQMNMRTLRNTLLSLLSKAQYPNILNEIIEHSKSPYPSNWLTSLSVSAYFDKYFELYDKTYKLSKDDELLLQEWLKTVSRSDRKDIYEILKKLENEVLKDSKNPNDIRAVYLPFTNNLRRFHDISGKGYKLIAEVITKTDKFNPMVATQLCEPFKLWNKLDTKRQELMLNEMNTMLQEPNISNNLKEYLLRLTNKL

[3] = biological target: T2, High affinity choline transporter 1 (Homo sapiens, UniProt Q9GZV3); test: human choline transporter blockers, potency – cell-based, 10-point CRC, membrane potential dye, dose response (AID 588401); assay type: functional;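 note: membrane potential dye fluorescence of choline-evoked depolarization via CHT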
T2 sequence (Q9GZV3 whole entry): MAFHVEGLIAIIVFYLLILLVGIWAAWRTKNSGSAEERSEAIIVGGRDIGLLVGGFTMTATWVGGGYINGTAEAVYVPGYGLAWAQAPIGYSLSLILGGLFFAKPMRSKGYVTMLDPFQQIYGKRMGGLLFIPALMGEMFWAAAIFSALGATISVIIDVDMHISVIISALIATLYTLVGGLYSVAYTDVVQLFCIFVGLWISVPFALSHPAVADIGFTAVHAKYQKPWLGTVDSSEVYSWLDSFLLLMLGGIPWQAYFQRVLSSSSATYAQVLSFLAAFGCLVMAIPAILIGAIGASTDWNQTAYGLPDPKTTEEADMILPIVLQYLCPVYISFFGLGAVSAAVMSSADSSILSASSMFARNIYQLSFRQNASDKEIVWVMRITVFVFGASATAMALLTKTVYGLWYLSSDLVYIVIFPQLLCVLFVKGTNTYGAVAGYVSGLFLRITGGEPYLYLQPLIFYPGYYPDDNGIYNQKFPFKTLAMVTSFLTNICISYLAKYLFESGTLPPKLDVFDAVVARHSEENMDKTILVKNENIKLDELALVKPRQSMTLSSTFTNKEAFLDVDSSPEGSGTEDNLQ

[4] = biological target: T2, High affinity choline transporter 1; test: human choline transporter blockers, potency – cell-based, 5-point CRC, membrane potential dye, dose response (AID 504840); assay type: functional
[5] = biological target: Potassium voltage-gated channel subfamily KQT member 2 (Rattus norvegicus, UniProt O88943); test: blockers of KCNQ2 channel current – cell-based, automated electrophysiology, set II, rat KCNQ2, dose response (AID 588637); assay type: functional
Interleukin-8 = biological target: T3, Interleukin-8 (Homo sapiens, UniProt P10145); test: Dose Response confirmation of uHTS small molecule hits for cystic fibrosis induced NFkb Inhibitors in a PAF-induced IL8 counterscreen.; assay type: functional; settings: read-out: IC50_Mean
T3 sequence (P10145 whole entry): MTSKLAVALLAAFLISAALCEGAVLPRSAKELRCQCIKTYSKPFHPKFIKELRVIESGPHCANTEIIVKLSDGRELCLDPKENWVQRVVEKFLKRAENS

Hexokinase-1 = biological target: T4, Hexokinase-1 (Homo sapiens, UniProt P19367); test: SAR analysis of small molecule inhibitors of hexokinase domain containing I (HKDC1) in the hexokinase 1 selectivity assay. [Related pubchem assays (depositor defined):AID493160, AID493190]; assay type: functional
T4 sequence (P19367 whole entry): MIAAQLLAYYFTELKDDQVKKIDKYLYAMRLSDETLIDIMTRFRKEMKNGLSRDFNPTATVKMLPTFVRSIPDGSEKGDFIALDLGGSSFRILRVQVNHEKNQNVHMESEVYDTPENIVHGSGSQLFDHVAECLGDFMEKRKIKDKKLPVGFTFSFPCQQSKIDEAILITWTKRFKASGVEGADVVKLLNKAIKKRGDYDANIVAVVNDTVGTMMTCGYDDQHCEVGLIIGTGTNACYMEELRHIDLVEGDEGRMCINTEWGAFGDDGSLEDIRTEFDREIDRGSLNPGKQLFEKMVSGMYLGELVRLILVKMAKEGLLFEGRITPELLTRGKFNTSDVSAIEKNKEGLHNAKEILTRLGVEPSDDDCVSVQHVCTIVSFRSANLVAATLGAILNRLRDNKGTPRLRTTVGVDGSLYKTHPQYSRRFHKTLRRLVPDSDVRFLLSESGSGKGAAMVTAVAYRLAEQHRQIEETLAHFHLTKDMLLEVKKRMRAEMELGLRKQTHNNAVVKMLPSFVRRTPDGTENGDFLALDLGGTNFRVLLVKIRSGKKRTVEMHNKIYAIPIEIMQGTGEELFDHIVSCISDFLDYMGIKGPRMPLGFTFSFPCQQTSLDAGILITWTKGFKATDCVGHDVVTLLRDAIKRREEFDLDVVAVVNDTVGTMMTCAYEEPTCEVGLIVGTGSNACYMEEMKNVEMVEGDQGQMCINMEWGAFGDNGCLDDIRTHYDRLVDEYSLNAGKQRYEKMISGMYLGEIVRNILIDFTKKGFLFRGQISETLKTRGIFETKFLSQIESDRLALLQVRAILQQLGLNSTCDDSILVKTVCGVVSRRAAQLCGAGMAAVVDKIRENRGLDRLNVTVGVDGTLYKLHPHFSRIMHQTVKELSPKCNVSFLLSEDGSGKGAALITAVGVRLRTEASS

Hexokinase HKDC1 = biological target: T5, Hexokinase HKDC1 (Homo sapiens, UniProt Q2TB90); test: SAR analysis of small molecule inhibitors of hexokinase domain containing I (HKDC1). [Related pubchem assays (depositor defined):AID493160, AID493190]; assay type: functional
T5 sequence (Q2TB90 whole entry): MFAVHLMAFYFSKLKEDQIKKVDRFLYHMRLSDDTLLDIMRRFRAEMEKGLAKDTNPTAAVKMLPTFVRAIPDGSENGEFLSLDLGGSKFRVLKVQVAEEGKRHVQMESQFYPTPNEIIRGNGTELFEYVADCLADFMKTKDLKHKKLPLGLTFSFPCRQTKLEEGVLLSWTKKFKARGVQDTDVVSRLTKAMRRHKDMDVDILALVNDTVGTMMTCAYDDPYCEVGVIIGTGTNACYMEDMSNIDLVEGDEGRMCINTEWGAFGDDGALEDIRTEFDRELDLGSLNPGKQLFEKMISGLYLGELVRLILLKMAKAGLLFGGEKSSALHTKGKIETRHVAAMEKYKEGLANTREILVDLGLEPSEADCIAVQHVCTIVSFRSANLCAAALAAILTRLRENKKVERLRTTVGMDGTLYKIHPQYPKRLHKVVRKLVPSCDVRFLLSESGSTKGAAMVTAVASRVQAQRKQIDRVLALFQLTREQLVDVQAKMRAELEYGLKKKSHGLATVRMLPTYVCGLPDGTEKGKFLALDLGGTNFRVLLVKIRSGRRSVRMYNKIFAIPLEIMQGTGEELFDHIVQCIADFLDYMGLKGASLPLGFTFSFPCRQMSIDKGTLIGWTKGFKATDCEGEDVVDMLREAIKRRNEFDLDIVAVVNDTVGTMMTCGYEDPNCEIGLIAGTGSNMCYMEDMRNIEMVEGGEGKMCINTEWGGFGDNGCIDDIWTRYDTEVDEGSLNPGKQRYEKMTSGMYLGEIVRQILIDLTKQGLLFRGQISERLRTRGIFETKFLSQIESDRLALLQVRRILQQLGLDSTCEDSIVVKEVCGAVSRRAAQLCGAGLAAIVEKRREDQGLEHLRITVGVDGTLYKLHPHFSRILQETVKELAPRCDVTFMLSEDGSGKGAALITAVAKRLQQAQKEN

[6] = biological target: T6, Apoptotic protease-activating factor 1 (Homo sapiens, UniProt O14727); test: SAR analysis of small molecule Activators of Apaf-1 in a Fluorescent assay.; assay type: functional; settings: read-out: EC50_Mean;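 note: caspase-3 cleavage of fluorogenic Rh110 DEVD substrate downstream of apoptosome activation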
T6 sequence (O14727 whole entry): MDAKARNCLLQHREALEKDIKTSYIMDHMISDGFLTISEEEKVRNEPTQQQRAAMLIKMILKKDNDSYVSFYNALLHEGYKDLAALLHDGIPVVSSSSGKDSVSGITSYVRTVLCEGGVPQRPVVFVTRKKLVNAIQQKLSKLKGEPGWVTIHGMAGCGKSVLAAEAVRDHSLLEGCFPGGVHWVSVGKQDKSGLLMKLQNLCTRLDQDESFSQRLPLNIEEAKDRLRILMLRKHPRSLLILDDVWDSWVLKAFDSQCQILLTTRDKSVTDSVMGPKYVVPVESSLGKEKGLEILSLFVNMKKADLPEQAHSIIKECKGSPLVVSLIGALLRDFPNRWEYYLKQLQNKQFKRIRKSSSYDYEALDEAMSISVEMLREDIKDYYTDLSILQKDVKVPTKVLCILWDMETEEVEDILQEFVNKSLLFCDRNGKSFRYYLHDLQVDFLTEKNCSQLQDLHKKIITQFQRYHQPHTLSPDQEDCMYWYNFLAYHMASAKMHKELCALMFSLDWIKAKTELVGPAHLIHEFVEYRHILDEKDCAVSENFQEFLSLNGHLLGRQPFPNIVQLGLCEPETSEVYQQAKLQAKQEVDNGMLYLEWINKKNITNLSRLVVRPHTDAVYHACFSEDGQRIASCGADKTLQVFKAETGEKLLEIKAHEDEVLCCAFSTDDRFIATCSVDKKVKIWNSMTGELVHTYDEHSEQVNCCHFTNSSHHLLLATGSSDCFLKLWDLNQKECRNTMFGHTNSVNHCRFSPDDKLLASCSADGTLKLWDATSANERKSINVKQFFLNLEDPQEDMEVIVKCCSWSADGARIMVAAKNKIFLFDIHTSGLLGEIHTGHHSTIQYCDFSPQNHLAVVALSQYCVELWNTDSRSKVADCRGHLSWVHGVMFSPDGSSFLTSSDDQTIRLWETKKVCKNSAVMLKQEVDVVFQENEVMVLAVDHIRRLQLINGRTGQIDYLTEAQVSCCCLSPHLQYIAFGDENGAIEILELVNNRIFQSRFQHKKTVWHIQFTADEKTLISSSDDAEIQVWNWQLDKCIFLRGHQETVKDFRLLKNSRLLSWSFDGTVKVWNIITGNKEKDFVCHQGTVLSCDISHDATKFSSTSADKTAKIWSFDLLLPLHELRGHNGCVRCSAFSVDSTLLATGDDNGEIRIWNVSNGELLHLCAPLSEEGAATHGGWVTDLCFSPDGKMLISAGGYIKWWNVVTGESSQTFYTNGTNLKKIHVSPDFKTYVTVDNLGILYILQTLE

[7] = inhibition of ARNT PAS-B/TACC3 complex formation – biochemical, AlphaScreen, cherry-picked samples, confirmation (AID 651703); assay type: functional, Homo sapiens;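 note: His-tagged ARNT PAS-B domain paired with GST-TACC3 E629A dimer coactivator fragment; potency of inhibitors that break up the complex and lower AlphaScreen signal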

Sequence of Potassium voltage-gated channel subfamily KQT member 2 (O88943 whole entry): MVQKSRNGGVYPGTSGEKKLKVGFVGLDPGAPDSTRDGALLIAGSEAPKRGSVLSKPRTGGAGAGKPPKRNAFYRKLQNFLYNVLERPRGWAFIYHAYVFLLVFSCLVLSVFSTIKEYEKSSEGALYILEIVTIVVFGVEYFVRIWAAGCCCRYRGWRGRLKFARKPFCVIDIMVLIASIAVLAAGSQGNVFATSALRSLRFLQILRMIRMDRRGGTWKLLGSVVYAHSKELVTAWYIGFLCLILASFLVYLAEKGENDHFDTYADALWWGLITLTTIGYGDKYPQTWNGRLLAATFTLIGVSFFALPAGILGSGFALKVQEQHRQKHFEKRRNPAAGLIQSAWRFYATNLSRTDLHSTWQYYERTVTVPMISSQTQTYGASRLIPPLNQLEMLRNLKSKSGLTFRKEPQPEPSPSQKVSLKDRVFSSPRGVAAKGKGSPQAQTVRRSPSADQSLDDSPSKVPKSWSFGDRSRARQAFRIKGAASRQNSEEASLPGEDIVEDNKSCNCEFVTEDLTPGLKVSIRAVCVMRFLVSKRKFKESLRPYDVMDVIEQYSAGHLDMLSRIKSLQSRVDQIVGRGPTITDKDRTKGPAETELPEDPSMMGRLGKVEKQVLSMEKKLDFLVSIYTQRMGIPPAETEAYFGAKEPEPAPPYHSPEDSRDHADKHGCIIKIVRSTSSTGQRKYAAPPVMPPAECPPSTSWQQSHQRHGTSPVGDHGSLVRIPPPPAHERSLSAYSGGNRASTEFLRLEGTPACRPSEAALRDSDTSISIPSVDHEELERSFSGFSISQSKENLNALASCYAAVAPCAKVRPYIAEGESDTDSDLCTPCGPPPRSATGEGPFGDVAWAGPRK
Sequence of Protein Wnt-3a (P27467 whole entry): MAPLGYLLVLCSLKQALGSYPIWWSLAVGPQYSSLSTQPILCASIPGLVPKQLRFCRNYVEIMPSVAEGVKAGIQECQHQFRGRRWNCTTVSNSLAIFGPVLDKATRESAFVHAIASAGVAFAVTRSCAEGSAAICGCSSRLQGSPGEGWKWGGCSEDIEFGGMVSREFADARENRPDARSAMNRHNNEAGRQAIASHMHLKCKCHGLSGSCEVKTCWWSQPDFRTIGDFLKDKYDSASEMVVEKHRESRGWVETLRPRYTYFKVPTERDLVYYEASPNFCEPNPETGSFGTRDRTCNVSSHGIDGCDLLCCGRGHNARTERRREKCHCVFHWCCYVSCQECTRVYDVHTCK

With `c1ccc(-c2c[n+](-c3ccccc3)c3n2CCS3)cc1` the EC50 [1] was 2.27 µM (active), the IC50 (Protein Wnt-3a) was 3.05 µM (active) and the EC50 [2] was > 60 µM (inconclusive).
For `Cc1cccc(C)c1-n1cccc1/C=C1/C(=N)N2C(=NC1=O)SN=C2S(C)(=O)=O`, the IC50 (Aminopeptidase N) was 34.4 µM (active), the IC50 [3] was 4.47 µM (active) and the IC50 [4] was 8.3 µM (active).
In the case of `COc1ccccc1N1CCN(C(=O)C(Cc2ccccc2)NC(=O)C2CCCCC2)CC1` (centres undefined), the IC50 [5] is reported as 5.72 µM (active).
With `CC(C)C[C@@H](CN1CCCC1CN1C(=S)NC[C@@H]1Cc1ccc(O)cc1)N1C[C@H](Cc2ccc(O)cc2)N(CCc2ccccc2)C1=S` (some centres undefined) the IC50 (Interleukin-8) was 9.82 µM (active).
With `COc1cccc(/C=C/c2nc3ccccc3c(=O)n2Cc2ccccc2)c1` the IC50 (Hexokinase-1) was > 80 µM (inactive) and the IC50 (Hexokinase HKDC1) was > 80 µM (inactive).
In the case of `COc1cc2c(cc1OC)-c1cc(N3CCc4ccccc4C3)nc(=O)n1CC2`, the IC50 (Hexokinase-1) is reported as 69 µM (inactive) and the IC50 (Hexokinase HKDC1) is reported as 65.7 µM (inactive).
For `CCOc1ccccc1NC(=O)CCS(=O)(=O)c1cc2c(cc1Cl)NC(=O)CO2`, the EC50 [6] was > 100 µM (inactive).
In the case of `COc1cccc(/C=N/NC(=O)CNC(=O)c2cccnc2)c1O`, the AC50 [7] is reported as 81.1 µM (active).
